Assay results reported in publication PMC6271870, “Study on the Synthesis, Biological Activity and Spectroscopy of Naphthalimide-Diamine Conjugates” (Molecules, 2014).

Legend:
herring sperm DNA [1] = assay: Fluorescence quenching of compound by DNA (Stern-Volmer, binding constant, thermodynamics); conditions: 7f quenched by DNA
Excerpt: The Stern–Volmer equation is the following: F0/F = 1+ KSVc = 1+ […] where F0 and F are the ﬂuorescence intensities in the absence and presence of quencher (DNA for compound 7f or compound 7f for DNA-EB, respectively), KSV is the Stern-Volmer quenching constant, [c] is the concentration of DNA (or compound 7f), Kq is the biomolecule quenching rate constant and Kq = KSV/τ0. τ0 is the average lifetime of the molecule without any quencher and the ﬂuorescence lifetime of the biopolymer is 10^−8 s. The Stern–Volmer plots of F0/F versus [c] at the three temperatures were shown in Figure 9 and Figure 10, and the calculated KSV and Kq values were presented in Table 2 and Table 3.
When small molecules bind independently to a set of equivalent sites in a macromolecule, the binding constant (Kb) can be determined by the following equation [40, 52]: log[1/c] = log [F/(F0 − F)] + logKb(3) where Kb denotes the binding constant for interaction of naphthalimide–DNA, and F0, F, [c] have the same meanings as in Equation (2).
There are several acting forces between a small organic molecule and biomacromolecules, such as hydrophobic force, hydrogen bond, van der Waals force, electrostatic interactions, etc.
Preparation of sample is the same as that of UV-Vis measurement. Fluorescence wavelengths and intensity areas of samples were measured at following conditions: EX = 345 nm, EM = 355~600 nm temperature: 298, 303 and 310 K.

[2] = tested on: human normal hepatocyte QSG-7701; assay: MTT assay, QSG-7701 cells; type: cell-based; conditions: QSG7701, aminoguanidine present, mean ± SD of three determinations, max 50 µM tested
Procedure: (§1) The cytotoxicities of the novel conjugates were assessed in vitro by the MTT assay in the presence of aminoguanidine (an inhibitor of amine oxidase) against three cell lines, human leukemia K562, cancer of colon HCT116 and human normal hepatocyte QSG-7701 [34]. […] Thus, compound 7f was selected for further investigation. Cell lines, K562, 7721 and HCT116 were obtained from American Type Culture Collection (ATCC, Shanghai, China). Cells were cultured in RPMI1640, supplemented with 10% heat-inactivated fetal calf serum (FCS), antibiotics (penicillin, 100 units/mL; streptomycin sulfate, 100 μg/mL) at 37 °C, in an atmosphere of 95% air and 5% CO2 under humidified conditions. Aminoguanidine (1 mM) was added as an inhibitor of amine oxidase derived from FCS and had no effect on the various parameters of the cell measured in this study. In addition, exponentially growing HCT116 or 7721 cells were seeded into 96-well plates at 5000 cells/well and allowed to attach overnight, and then 100 μL of MTT (1 mg/mL) was added. After incubation for 4 h at 37 °C, the MTT solution was removed and the remaining formazan crystals were dissolved with 150 μL DMSO in each well. The absorbance of each well was then read at 570 nm.

herring sperm DNA [3] = assay: Iodide (KI) fluorescence quenching in absence and presence of DNA; type: binding; conditions: KI quencher
Excerpt: A highly negatively charged quencher is expected to be repelled by the negatively charged phosphate backbone of DNA, therefore an intercalative bound drug molecules should be protected from being quenched by anionic quencher, but the free aqueous complexes or groove binding drugs should be quenched readily by anionic quenchers. At the same time, whether the quencher accesses to fluorophore also plays a role in free and bound one.
Negatively charged I^− was selected for this purpose. The quenching constants (Ksv) were obtained from the Stern–Volmer equation. […]
Solution of compound 7f (0.5 mL, 2.00 × 10^−4 mol/L and herring sperm DNA 0.5 mL ([…]) in Tris-HCl (pH = 7.4) were mixed with 0.0, 0.10, 0.20, 0.30, 0.60, 0.90 1.20, 1.50, 1.80, 2.10, 2.40, 2.70 and 3.00 of KI (2.0 × 10^−2 mol∙L^−1) respectively. Meanwhile, 0.5 mL solution of compound 7f (2.00 × 10^−4 mol/L was only mixed with 0.0, 0.10, 0.20, 0.30, 0.60, 0.90 1.20, 1.50, 1.80, 2.10, 2.40, 2.70 and 3.00 mL of KI (2.0 × 10^−2 mol∙L^−1) respectively. The mixture was diluted to 5 mL with Tris-HCl (pH = 7.4). Thus, samples were prepared in the concentration of KI at 0.0, 400, 800, 1,200, 2,400, 3,600, 4,800, 6,000, 7,200, 8,400, 9,600, 10,800, 12,000 × 10^−6 mol∙L^−1. […] Fluorescence wavelengths and intensity areas of samples were measured at following conditions: EX = 345 nm, EM = 355~600 nm.

human leukemia K562 = assay: MTT assay, K562 cells; type: cell-based; conditions: 48 h, aminoguanidine present, mean ± SD of three determinations, max 50 µM tested
Procedure: as §1, with “Chemosensitivity” for “In addition, exponentially growing HCT116 or 7721 cells were seeded into 96-well plates at 5000 cells/well and allowed to attach overnight, and then 100 μL of MTT (1 mg/mL)”, “assessed using the 3-(4,5-dimethylthiazol-2-yl)-2,5-diphenyltetrazolium bromide (MTT) assay. […]” for “added.”, “purple” for “MTT solution was removed and the remaining”, “crystals (i.e., a reduced form of MTT) generated from viable cells” for “crystals”, “by adding 100” for “with 150”, “10% sodium dodecyl sulphate (SDS)” for “DMSO”

KSV (Stern-Volmer quenching constant) (herring sperm DNA [1]; 298 K): 5567 L/mol
KSV (Stern-Volmer quenching constant) (herring sperm DNA [1]; 303 K): 4789 L/mol
KSV (Stern-Volmer quenching constant) (herring sperm DNA [1]; 310 K): 3651 L/mol
Ksv with I^− ion (herring sperm DNA [3]; absence of DNA, 7f 20 × 10^−6 mol∙L^−1): 38.178 L/mol
Ksv with I^− ion (herring sperm DNA [3]; presence of DNA 22.84 × 10^−6 mol∙L^−1, 7f 20 × 10^−6 mol∙L^−1): 31.575 L/mol
IC50 (human leukemia K562): 18.9 ± 1.97 µM
SMILES: Cl.Cl.NCCCCNCCCN1C(=O)c2cccc3cccc(c23)C1=O [Compound 7f, 2-[3-(4-Aminobutylamino)propyl]1H-benz-[de]isoquinoline-1,3(2H)-dione dihydrochloride]
IC50 [2]: 19.7 ± 3.42 µM
